The results in this text go back to ChEMBL document CHEMBL1777795, “From benzimidazole to indole-5-carboxamide Thumb Pocket I inhibitors of HCV NS5B polymerase. Part 1: indole C-2 SAR and discovery of diamide derivatives with nanomolar potency in cell-based subgenomic replicons” (Bioorg Med Chem Lett, 2011).

Series [1] can be described thus: (§1) Permeability from apical to basolateral side of human Caco2 cells. It is filed as ADME, cell-based, Caco-2. To be noted: Caco-2, read-out: permeability. In general terms: Caco-2 monolayers are a common model of the intestinal barrier.
Series [2] in a line: Cmax in Sprague-Dawley rat at 10 mg/kg, po. The series is classed as ADME, organism-based. Details: dose 10 mg/kg, route oral. To be noted: in vivo.
Series [3] in a line: AUC in Sprague-Dawley rat at 10 mg/kg, po. As to conditions: plasma. The series is classed as ADME, organism-based. Also on record: dose 10 mg/kg, route oral.
Series [4] is described as follows: Mean residence time in Sprague-Dawley rat at 10 mg/kg, po. It is filed as ADME, organism-based. Details: dose 10 mg/kg, route oral. As to conditions: in vivo.
The next series deals with Caco-2. The description is as §1. The series is classed as ADME, cell-based. To be noted: caco-2, BLD = below limit of detection.

Molecules are shown by their SMILES.

For the compound `Cn1c(-c2cnco2)c(C2CCCCC2)c2ccc(C(=O)NC(C)(C)C(=O)Nc3ccc(/C=C/C(=O)O)cc3)cc21`, in series [1], the Papp A→B turned out to be 50 nm/s.

With `Cn1c(-c2csc(-c3cccnc3)n2)c(C2CCCCC2)c2ccc(C(=O)NC(C)(C)C(=O)Nc3ccc(/C=C/C(=O)O)cc3)cc21`, in series [1], the Papp A→B was determined as 2 nm/s.

As for `Cn1c(-c2cccnc2)c(C2CCCCC2)c2ccc(C(=O)NC(C)(C)C(=O)Nc3ccc(/C=C/C(=O)O)cc3)cc21`, the Papp A→B in series [1] turned out to be 94 nm/s.

For `COc1cccc(-c2c(C3CCCCC3)c3ccc(C(=O)NC(C)(C)C(=O)Nc4ccc(/C=C/C(=O)O)cc4)cc3n2C)n1`, in series [1], the Papp A→B amounted to 240 nm/s.

As for `Cn1c(-c2cncnc2)c(C2CCCCC2)c2ccc(C(=O)NC(C)(C)C(=O)Nc3ccc(/C=C/C(=O)O)cc3)cc21`, the Papp A→B in series [1] stood at 33 nm/s.

In the case of `Cc1ccc(-c2c(C3CCCCC3)c3ccc(C(=O)NC(C)(C)C(=O)Nc4ccc(/C=C/C(=O)O)cc4)cc3n2C)cn1`, the Papp A→B in series [1] is 26 nm/s.

As to `Cn1c(-c2ccccn2)c(C2CCCCC2)c2ccc(C(=O)NC(C)(C)C(=O)Nc3ccc(/C=C/C(=O)O)cc3)cc21`, in series [1], the Papp A→B stood at 160 nm/s. The highest level in series [2] (Cmax) was 1.23 µM. The exposure (AUC) – broadly, concentration integrated over time – in series [3] is 870 nM·h. For the same compound, the MRT (usually a mean duration of stay, worked out from the concentration-time curve) in series [4] turned out to be 0.5 h.

As to `Cn1c(-c2ccoc2)c(C2CCCCC2)c2ccc(C(=O)NC(C)(C)C(=O)Nc3ccc(/C=C/C(=O)O)cc3)cc21`, the Papp A→B in series [1] was 60 nm/s.

With `Cn1c(-c2nccs2)c(C2CCCCC2)c2ccc(C(=O)NC(C)(C)C(=O)Nc3ccc(/C=C/C(=O)O)cc3)cc21`, the Papp A→B in series [1] came to 85 nm/s.

As for `Cn1c(-c2ccncc2)c(C2CCCCC2)c2ccc(C(=O)NC(C)(C)C(=O)Nc3ccc(/C=C/C(=O)O)cc3)cc21`, in series [1], the Papp A→B worked out at 3 nm/s.

For `Cn1c(-c2cccc3cccnc23)c(C2CCCCC2)c2ccc(C(=O)NC(C)(C)C(=O)Nc3ccc(/C=C/C(=O)O)cc3)cc21`, in series [1], the Papp A→B came to 34 nm/s.

As to `Cn1c(-c2cnccn2)c(C2CCCCC2)c2ccc(C(=O)NC(C)(C)C(=O)Nc3ccc(/C=C/C(=O)O)cc3)cc21`, in series [1], the Papp A→B was 70 nm/s.

Turning to `Cc1ccc(-c2c(C3CCCCC3)c3ccc(C(=O)NC(C)(C)C(=O)Nc4ccc(/C=C/C(=O)O)cc4)cc3n2C)nc1`, the Papp A→B in series [1] stood at 164 nm/s.

Consider `Cn1c(-c2cccc(N)n2)c(C2CCCCC2)c2ccc(C(=O)NC(C)(C)C(=O)Nc3ccc(/C=C/C(=O)O)cc3)cc21`, for which, in series [1], the Papp A→B amounted to 15 nm/s. Also, the highest level in series [2] (Cmax) was 0.99 µM. The compound also yielded an AUC in series [3] of 1180 nM·h. The mean residence time MRT in series [4] stood at 3.4 h.

In the case of `Cn1c(-c2ccc3ncccc3c2)c(C2CCCCC2)c2ccc(C(=O)NC(C)(C)C(=O)Nc3ccc(/C=C/C(=O)O)cc3)cc21`, the permeability result with Caco-2 is on record as “BLD”.

For the compound `Cc1cccc(-c2c(C3CCCCC3)c3ccc(C(=O)NC(C)(C)C(=O)Nc4ccc(/C=C/C(=O)O)cc4)cc3n2C)n1`, the Papp A→B in series [1] was found to be 69 nm/s.
